Source: ChEMBL document CHEMBL5120857, “Rational design, synthesis and biological evaluation of dual PARP-1/2 and TNKS1/2 inhibitors for cancer therapy” (Eur J Med Chem, 2022)
The source made the active and inactive calls. The rule behind the calls is not given here.

Assays:
HCT-116 [1] = assay: Induction of apoptosis in human HCT-116 cells assessed as necrotic cells at 1 uM incubated for 3 days by annexinV-FITC/propidium iodide staining based flow cytometry (reference value: 3.65 %); format: functional; settings: time 3 day
HCT-116 [2] = assay: Induction of cell cycle arrest in human HCT-116 cells assessed as S phase cells at 5 uM incubated for 3 days by propidium iodide staining based flow cytometry (reference value: 11.26 %); format: functional; settings: time 3 day
[3] = Toxicity in […] assessed as morphological changes in duodenum at 500 mg/kg, ip by H&E staining based histopathological analysis; format: organism-based; settings: in vivo
[4] = target: T1, Protein mono-ADP-ribosyltransferase TIPARP (Homo sapiens, UniProt Q7Z3E1); assay: Inhibition of PARP-7 (unknown origin)
T1 sequence (Q7Z3E1 whole entry): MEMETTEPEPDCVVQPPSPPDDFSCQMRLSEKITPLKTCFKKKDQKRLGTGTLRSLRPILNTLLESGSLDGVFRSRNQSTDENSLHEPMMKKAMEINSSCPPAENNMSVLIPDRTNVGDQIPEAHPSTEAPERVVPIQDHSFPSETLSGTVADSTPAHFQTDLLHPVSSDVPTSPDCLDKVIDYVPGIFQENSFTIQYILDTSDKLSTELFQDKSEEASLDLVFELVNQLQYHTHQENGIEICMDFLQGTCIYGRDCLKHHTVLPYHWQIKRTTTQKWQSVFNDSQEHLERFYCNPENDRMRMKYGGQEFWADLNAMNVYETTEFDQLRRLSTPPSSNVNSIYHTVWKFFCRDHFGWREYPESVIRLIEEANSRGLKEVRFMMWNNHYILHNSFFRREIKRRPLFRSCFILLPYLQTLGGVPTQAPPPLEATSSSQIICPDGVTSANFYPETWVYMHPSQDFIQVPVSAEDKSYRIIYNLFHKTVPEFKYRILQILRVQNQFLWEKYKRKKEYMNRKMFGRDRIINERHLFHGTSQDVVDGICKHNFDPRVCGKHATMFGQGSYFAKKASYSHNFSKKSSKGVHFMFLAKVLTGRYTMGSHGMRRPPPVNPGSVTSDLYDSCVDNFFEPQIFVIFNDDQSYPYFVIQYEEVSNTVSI

[5] = Cytotoxicity against mouse AML12 cells assessed as reduction in cell viability incubated for 7 days by MTT assay; format: toxicity, cell-based; settings: time 7 day
HCT-116 [6] = assay: Induction of apoptosis in human HCT-116 cells assessed as viable cells at 1 uM incubated for 3 days by annexinV-FITC/propidium iodide staining based flow cytometry (reference value: 60.0 %); format: functional; settings: HCT-116, 72 h, time 3 day, read-out: Activity
HCT-116 [7] = assay: Inhibition of Wnt/beta-Catenin signaling in human HCT-116 cells assessed as decrease in cyclin D1 levels at 10 uM by Western blot analysis; format: cell-based
HCT-116 [8] = assay: Inhibition of Wnt/beta-Catenin signaling in human HCT-116 cells assessed as decrease in total beta-catenin levels at 10 uM by Western blot analysis; format: cell-based
[9] = Toxicity in […] assessed as effect on body weight at 500 mg/kg, ip administered as single dose and measured on day 4 (reference value: 24.50 +/- 3.11 g); format: organism-based; settings: in vivo
[10] = Toxicity in […] assessed as effect on body weight at 500 mg/kg, ip administered as single dose and measured on day 2 (reference value: 23.25 +/- 2.22 g); format: organism-based; settings: in vivo
[11] = target: Protein mono-ADP-ribosyltransferase PARP14 (Homo sapiens, UniProt Q460N5); assay: Inhibition of PARP-14 (unknown origin)
Sequence of Protein mono-ADP-ribosyltransferase PARP14 (Q460N5 whole entry): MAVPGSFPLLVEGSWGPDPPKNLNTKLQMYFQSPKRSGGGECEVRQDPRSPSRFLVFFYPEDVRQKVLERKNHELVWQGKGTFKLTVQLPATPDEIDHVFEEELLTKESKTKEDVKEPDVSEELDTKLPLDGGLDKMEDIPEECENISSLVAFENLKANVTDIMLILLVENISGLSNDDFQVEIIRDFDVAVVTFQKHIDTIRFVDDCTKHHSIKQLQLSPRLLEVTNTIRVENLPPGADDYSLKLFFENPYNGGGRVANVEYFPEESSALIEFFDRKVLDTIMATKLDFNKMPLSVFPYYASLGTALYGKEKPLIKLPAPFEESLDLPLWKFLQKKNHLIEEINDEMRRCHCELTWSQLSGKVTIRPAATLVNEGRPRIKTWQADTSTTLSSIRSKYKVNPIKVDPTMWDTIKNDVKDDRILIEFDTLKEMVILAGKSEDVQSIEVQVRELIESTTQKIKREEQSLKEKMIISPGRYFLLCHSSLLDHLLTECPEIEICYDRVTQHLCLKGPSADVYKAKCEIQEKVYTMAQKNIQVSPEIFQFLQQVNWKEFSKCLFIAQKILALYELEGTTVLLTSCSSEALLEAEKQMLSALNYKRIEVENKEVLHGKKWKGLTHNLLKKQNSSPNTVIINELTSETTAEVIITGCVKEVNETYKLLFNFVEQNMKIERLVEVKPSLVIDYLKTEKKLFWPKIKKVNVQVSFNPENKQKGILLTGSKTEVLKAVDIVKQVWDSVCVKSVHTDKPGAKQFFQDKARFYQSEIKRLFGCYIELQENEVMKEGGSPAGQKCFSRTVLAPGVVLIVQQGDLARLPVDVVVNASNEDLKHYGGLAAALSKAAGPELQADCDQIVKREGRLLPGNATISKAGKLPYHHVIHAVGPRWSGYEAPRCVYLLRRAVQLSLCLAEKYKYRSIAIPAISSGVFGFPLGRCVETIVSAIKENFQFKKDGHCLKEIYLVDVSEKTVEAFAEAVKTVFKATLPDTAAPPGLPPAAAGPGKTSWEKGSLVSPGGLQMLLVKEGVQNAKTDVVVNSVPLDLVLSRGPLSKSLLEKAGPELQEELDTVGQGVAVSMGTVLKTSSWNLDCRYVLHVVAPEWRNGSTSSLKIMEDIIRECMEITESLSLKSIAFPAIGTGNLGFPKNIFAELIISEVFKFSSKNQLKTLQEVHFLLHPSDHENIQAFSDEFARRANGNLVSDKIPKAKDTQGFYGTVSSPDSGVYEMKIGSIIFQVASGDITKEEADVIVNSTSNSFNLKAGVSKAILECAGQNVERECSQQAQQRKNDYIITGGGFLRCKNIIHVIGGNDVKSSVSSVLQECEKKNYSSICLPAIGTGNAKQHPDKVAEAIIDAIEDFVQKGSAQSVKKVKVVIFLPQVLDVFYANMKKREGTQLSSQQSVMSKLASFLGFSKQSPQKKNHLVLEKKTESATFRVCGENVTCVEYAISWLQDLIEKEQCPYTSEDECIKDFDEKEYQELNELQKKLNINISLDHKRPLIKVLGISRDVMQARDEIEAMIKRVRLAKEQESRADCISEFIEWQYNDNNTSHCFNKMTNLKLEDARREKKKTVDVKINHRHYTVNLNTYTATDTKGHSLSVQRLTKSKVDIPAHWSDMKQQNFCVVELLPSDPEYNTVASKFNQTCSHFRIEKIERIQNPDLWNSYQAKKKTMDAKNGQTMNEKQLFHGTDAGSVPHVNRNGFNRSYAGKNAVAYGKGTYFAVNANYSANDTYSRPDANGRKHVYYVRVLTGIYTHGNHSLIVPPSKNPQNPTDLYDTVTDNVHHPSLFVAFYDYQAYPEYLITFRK

HCT-116 [12] = assay: Induction of apoptosis in human HCT-116 cells assessed as late apoptotic cells at 1 uM incubated for 3 days by annexinV-FITC/propidium iodide staining based flow cytometry (reference value: 8.71 %); format: functional; settings: time 3 day
HCT-116 [13] = assay: Downregulation of BRCA1 protein expression in human HCT-116 cells at 1 uM by Western blot analysis; format: functional, cell-based
HCT-116 [14] = assay: Induction of cell cycle arrest in human HCT-116 cells assessed as G2/M phase cells at 5 uM incubated for 3 days by propidium iodide staining based flow cytometry (reference value: 68.35 %); format: functional; settings: time 3 day
[15] = Toxicity in […] assessed as effect on body weight at 500 mg/kg, ip administered as single dose and measured on day 7 (reference value: 26.00 +/- 3.16 g); format: organism-based; settings: in vivo
HCT-116 [16] = assay: Induction of apoptosis in human HCT-116 cells assessed as viable cells at 5 uM incubated for 3 days by annexinV-FITC/propidium iodide staining based flow cytometry (reference value: 60.0 %); format: functional; settings: Homo sapiens, HCT-116, 72 h, time 3 day, read-out: Activity
HCT-116 [17] = assay: Induction of apoptosis in human HCT-116 cells assessed as necrotic cells at 5 uM incubated for 3 days by annexinV-FITC/propidium iodide staining based flow cytometry (reference value: 3.65 %); format: functional; settings: time 3 day
HCT-116 [18] = assay: Antitumor activity against human HCT-116 cells xenografted in BALB/c nude mouse assessed as tumor growth inhibition at 25 mg/kg, ip administered once daily for 28 days; format: functional; settings: HCT-116, 672 h, time 28 day, read-out: TGI
[19] = Toxicity in […] assessed as rat death administered as single dose at 500 mg/kg, ip; format: organism-based; settings: in vivo
HCT-116 [20] = assay: Induction of cell cycle arrest in human HCT-116 cells assessed as G0/G1 phase cells at 1 uM incubated for 3 days by propidium iodide staining based flow cytometry (reference value: 68.35 %); format: functional; settings: time 3 day
MDA-MB-468 = assay: Antiproliferative activity against human MDA-MB-468 cells assessed as inhibition of cell growth incubated for 7 days by MTT assay; format: functional, cell-based; settings: MDA-MB-468, 168 h
[21] = target: Poly [ADP-ribose] polymerase 2 (Homo sapiens, UniProt Q9UGN5); assay: Inhibition of PAPR-2 (unknown origin)
Sequence of Poly [ADP-ribose] polymerase 2 (Q9UGN5 whole entry): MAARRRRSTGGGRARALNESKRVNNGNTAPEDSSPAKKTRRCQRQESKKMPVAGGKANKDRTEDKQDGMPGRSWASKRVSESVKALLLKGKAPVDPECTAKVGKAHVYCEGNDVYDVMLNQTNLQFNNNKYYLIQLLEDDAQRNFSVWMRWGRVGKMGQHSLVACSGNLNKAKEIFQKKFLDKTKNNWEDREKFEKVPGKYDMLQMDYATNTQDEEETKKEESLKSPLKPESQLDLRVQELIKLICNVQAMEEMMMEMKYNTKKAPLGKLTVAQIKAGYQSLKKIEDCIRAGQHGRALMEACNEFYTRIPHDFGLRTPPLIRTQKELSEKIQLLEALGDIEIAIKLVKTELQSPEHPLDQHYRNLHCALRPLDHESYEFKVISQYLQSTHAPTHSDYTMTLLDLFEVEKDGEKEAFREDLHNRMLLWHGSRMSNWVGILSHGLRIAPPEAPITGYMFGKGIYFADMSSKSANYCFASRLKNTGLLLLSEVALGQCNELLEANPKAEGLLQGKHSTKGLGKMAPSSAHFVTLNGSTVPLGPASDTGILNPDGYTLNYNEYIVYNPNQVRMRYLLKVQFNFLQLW

In the case of COc1ccc(NC(=O)c2ccc(NC(=O)N3CCN(C(=O)c4cc(Cc5n[nH]c(=O)c6ccccc56)ccc4F)CC3)cc2)cc1, the Activity (HCT-116 [1]) is reported as 4.57%, the Activity (HCT-116 [2]) is reported as 4.19% and the Activity [3] is reported as “Non-Toxic”. For the same compound, the IC50 [4] was 15 nM, the CC50 at 168 h [5] was 117000 nM and the viability at 1 µM (HCT-116 [6]) was 71.3%. For the same compound, the inhibition (HCT-116 [7]) was “Active”, the inhibition (HCT-116 [8]) was “Active” and the Activity [9] was 23 g. It also gave an Activity [10] of 20.75 g, an IC50 [11] of 1370 nM and an Activity (HCT-116 [12]) of 15.3%. The Activity (HCT-116 [13]) was “Active”, the Activity (HCT-116 [14]) was 54.6% and the Activity [15] was 24.25 g. For the same compound, the viability at 5 µM (HCT-116 [16]) was 45.1%, the Activity (HCT-116 [17]) was 8.56% and the inhibition in vivo at 25 mg/kg (HCT-116 [18]) was 31.7%. For the same compound, the Activity [19] was “Non-Toxic”, the Activity (HCT-116 [20]) was 59.2% and the IC50 (MDA-MB-468) was 90 nM. The IC50 [21] was 1.2 nM.
